Patent US12564609B2, “Hematopoietic stem cell engraftment with a combination of agents” (The Board of Trustees of the Leland Stanford Junior …, priority 2020, dated 2026)

Tests used:
LT-HSC, ST-HSC, MPP = test: Ki67 expression and HSPC depletion after AZA (dose titration); type: in vivo, C57BL/6 mice
Procedure: A. Schematic of treatment protocol. […] 24 h after last AZA injection BM was analyzed for HSC-depletion and Ki67 intracellular protein expression. B. […] C. Mean fluorescence intensity (MFI) of Ki67 intracellular protein expression in LT-HSC, ST-HSC, MPP2, MPP3/4 and myeloid progenitors (MP). Data were pooled from 2 independent experiments and represent mean±SD (n=7). Statistics were calculated Mann-Whitney test (*P<0.05; **P<0.01; ***P<0.001). D. Schematic of in vitro culture protocol. Mouse Lin^−Sca1+c-Kit^+CD48^− or human Lin^−CD34^+CD38^− were FACS-sorted and plated in 96-well flat bottom plate, coated with fibronectin and containing 100 μl of HSC media/well, supplemented with 10 ng/ml SCF and 100 ng/ml TPO. Different concentrations of AZA (0.1, 0.5 and 1 μg/ml) were added on two consecutive days (at baseline and 24 h after cell culturing) and cell counting, and cell imaging was performed every 6 h for total of 48 h on ImagExpress Pico automated cell counting system. After 48 h % live/dead cells was assessed by using EarlyTox Live/Dead Assay Kit. E. Proliferation curves of FACS-sorted mouse Lin^−Sca1^+c-Kit^+CD48^− in the presence of indicated concentrations of AZA (left) and cell viability as assessed by % of Calcein AM positive cells after 48 h of cell culture (right). Data represent mean±SD from 3 independent experiments. Statistics were calculated with Mann-Whitney test (*P<0.05; **P<0.01; ***P<0.001). F. Proliferation curves of FACS-sorted human Lin^−CD34^+CD38^− cells in the presence of indicated concentrations of AZA (left) and cell viability as assessed by % of Calcein AM positive cells after 48 h of cell culture (right). Data represent mean±SD from 2 independent experiments. Statistics were calculated with Mann-Whitney test (**P<0.01; ***P<0.001).
Analysis was performed 24 h after last AZA administration. Gated from lineage negative (Lin^−) live cells. Lin^−Sca1^+c-Kit^++ cells (LSK), long-term hematopoietic stem cells (LT-HSC). […] Data were pooled from 2 independent experiments and represent mean±SD (n=7). Statistics were calculated Mann-Whitney test (**P<0.01; ***P<0.001).
In vivo administration of therapeutic agents and cytokines. Anti-mouse CD117 mAbs, clone ACK2 (BioXcell) and 2B8 (BioXcell), were injected retroorbital as a single dose of 500 μg following intraperitoneal administration of Diphenhydramine (Benadryl). Anti CD4 (clone GK1.5, BioXcell) and anti-CD8 (clone YTS169.4, BioXcell) were administered intraperitoneally at a dose of 100 μg in 100 μl phosphate-buffered saline (PBS). 5-Azacytidine (AZA) ([…] Technologies), was reconstituted in PBS to a concentration of 5 mg/ml and kept at −20° for up to 1 month. Before each injection, AZA was thawed for 10-15 min at room temperature (RT), resuspended in PBS and administered intraperitoneally in 100 μl. […]

[1] = test system: Lin−Sca1+c-Kit+ cells (LSK); test: Annexin V/PI staining of HSPC fractions after AZA in vivo; parameters: species or system mice; conditions: AZA 1.25, 2.5 and 5 mg/kg/d for 3 days
Procedure: Analysis was performed 24 h after last AZA administration. Gated from LSK. (B) Annexin V+(left) and AnnexinV/PI+(right) cells shown as % from LSK in the three different dose groups as compared to untreated controls. Data were pooled from 2 independent experiments and represent mean±SD (n=4 in the control group and n=7 in the AZA groups). Statistics were calculated Mann-Whitney test (*P<0.05; **P<0.01).
In vivo direct killing by apoptosis was confirmed by flow cytometry using Annexin V/PI to stain the HSPC fractions.

donor HSC engraftment = test: Congenic hematopoietic cell transplantation, donor chimerism in peripheral blood; type: in vivo, B6 mice
Text: Mice. C57BL/6 (B6) mice (H-2^b, Thy1.1, CD45.1/CD45.2) were recipients and B6 mice (H-2^b, Thy1.1, CD45.1) were donors for the congenic transplant experiments. BALB.B (H-2^b, Thy1.2, CD45.2) mice were used as recipients and B6 mice (H-2^b, Thy1.1, CD45.1) as donors for […] (allogeneic) transplant experiments. Recipients were >8 weeks old and donors were 8-12 weeks old at timepoint of transplantation. B6 (H-2^b, Thy1.1, CD45.2) mice were used for in vivo depletion studies. Mice were bred and maintained under pathogen free conditions at the Stanford University Research Animal Facility. All experiments were performed under a protocol approved by the Stanford Administrative Panel on Laboratory Animal Care.
In vivo administration of therapeutic agents and cytokines. Anti-mouse CD117 mAbs, clone ACK2 (BioXcell) and 2B8 (BioXcell), were injected retroorbital as a single dose of 500 μg following intraperitoneal administration of Diphenhydramine (Benadryl). Anti CD4 (clone GK1.5, BioXcell) and anti-CD8 (clone YTS169.4, BioXcell) were administered intraperitoneally at a dose of 100 μg in 100 μl phosphate-buffered saline (PBS). […] Before each injection, AZA was thawed for 10-15 min at room temperature (RT), resuspended in PBS and administered intraperitoneally in 100 μl. […]

[2] = AZA in mouse model of HCL with transplantation of donor hematopoietic cells; type: in vivo, mice; conditions: AZA 5 mg/kg for 5 days followed by transplantation
Procedure: Wildtype and HCL mice were treated with AZA 5 mg/kg for 5 days following by transplantation of donor hematopoietic cells. % myeloid donor chimerism was assessed by flow cytometry at 4- and 16-weeks post transplantation.

Nc1ncn([C@@H]2O[C@H](CO)[C@@H](O)[C@H]2O)c(=O)n1 [AZA, 5-Azacytidine]
level of HSPC (LSK) and LT-HSC after depletion (LT-HSC, ST-HSC, MPP; AZA 1.25 mg/kg/d for 3 days, 24 h after last dose): −25 % of baseline | normalization of Ki67 in HSC and MPP (LT-HSC, ST-HSC, MPP; AZA 5 mg/kg/d for 5 days): ≤ 10 days | Ki67 in HSC and MPP (LT-HSC, ST-HSC, MPP; AZA 5 mg/kg/d for 5 days, day 6): significant increase of Ki67 | Ki67 protein expression in HSC, MPP and MP compartments (LT-HSC, ST-HSC, MPP; AZA 1.25, 2.5 and 5 mg/kg/d for 3 days (all three dose regimens)): significant increase in Ki67 protein expression | apoptosis and apoptotic cell death in the HSPC compartment [1]: dose dependent | stable engraftment of donor WBM (donor HSC engraftment; AZA 2.5 mg/kg for 5 days, 20×10^6 congenic WBM cells): does not enable stable engraftment | myeloid donor chimerism (donor HSC engraftment; single agent AZA 5 mg/kg for 5 days, congenic WBM cells): 10-15% | therapeutic activity [2]: shows therapeutic activity
